Results taken from ChEMBL document CHEMBL3885861, “Open TG-GATES”.

Species: Rattus norvegicus
Assay: Open TG-GATES - Regimen: Single
Type: toxicity, organism-based, Sprague-Dawley
Parameters: regimen Single, gender Male, age 6 weeks
Settings: in vivo, po, 1000 mg/kg, route gavage, dose level Middle; for APTT / Bas / Eos / Fbg / Hb / Ht / Lym / MCH / MCHC / MCV / Mono / Neu / PT / Plat / RBC / Ret / WBC: tissue Blood; for KIDNEY_L / KIDNEY_R / KIDNEY_TOTAL: tissue Kidney; for LIVER: tissue Liver; for A/G / ALP / ALT / AST / BUN / CRE / Ca / Cl / DBIL / GLC / IP / K / LDH / Na / PL / RALB / TBIL / TC / TG / TP / gamma-GTP: tissue Plasma

Question: `CC(=O)[C@@]1(O)CC[C@H]2[C@@H]3C=C(Cl)C4=CC(=O)CC[C@]4(C)[C@H]3CC[C@@]21C` [CHLORMADINONE] was tested. Which TERMINAL_BW (3 h) did it give?
Answer: 226.2 g

Question: And the APTT (3 h)?
Answer: 23.3 s

Question: What about the Bas (3 h) of the same compound?
Answer: 0%

Question: What about the Eos (3 h) of the same compound?
Answer: 1%

Question: What about the Fbg (3 h) of the same compound?
Answer: 302 mg/dL

Question: What about the Hb (3 h) of the same compound?
Answer: 12.9 g/dL

Question: And the Ht (3 h)?
Answer: 40.2%

Question: And the Lym (3 h)?
Answer: 75%

Question: What about the MCH (3 h) of the same compound?
Answer: 21.2 pg

Question: What about the MCHC (3 h) of the same compound?
Answer: 32.1%

Question: What about the MCV (3 h) of the same compound?
Answer: 66.1 fL

Question: What about the Mono (3 h) of the same compound?
Answer: 2.4%

Question: What about the Neu (3 h) of the same compound?
Answer: 21.2%

Question: And the PT (3 h)?
Answer: 15.8 s

Question: And the Plat (3 h)?
Answer: 112.9 x10_4/uL

Question: What about the RBC (3 h) of the same compound?
Answer: 608.8 x10_4/ul

Question: And the Ret (3 h)?
Answer: 9.1%

Question: And the WBC (3 h)?
Answer: 72.4 x10_2/uL

Question: And the KIDNEY_L (3 h)?
Answer: 1 g

Question: And the KIDNEY_R (3 h)?
Answer: 1.1 g

Question: What about the KIDNEY_TOTAL (3 h) of the same compound?
Answer: 2.1 g

Question: And the LIVER (3 h)?
Answer: 10.9 g

Question: What about the A/G (3 h) of the same compound?
Answer: 1.3

Question: What about the ALP (3 h) of the same compound?
Answer: 1451.2 IU/L

Question: What about the ALT (3 h) of the same compound?
Answer: 38.8 IU/L

Question: And the AST (3 h)?
Answer: 74 IU/L

Question: And the BUN (3 h)?
Answer: 13.8 mg/dL

Question: What about the CRE (3 h) of the same compound?
Answer: 0.1 mg/dL

Question: What about the Ca (3 h) of the same compound?
Answer: 11.2 mg/dL

Question: What about the Cl (3 h) of the same compound?
Answer: 104.6 meq/L

Question: And the DBIL (3 h)?
Answer: 0 mg/dL

Question: What about the GLC (3 h) of the same compound?
Answer: 176.4 mg/dL

Question: And the IP (3 h)?
Answer: 8 mg/dL

Question: What about the K (3 h) of the same compound?
Answer: 4.3 meq/L

Question: What about the LDH (3 h) of the same compound?
Answer: 166.6 IU/L

Question: And the Na (3 h)?
Answer: 141.6 meq/L

Question: And the PL (3 h)?
Answer: 134.4 mg/dL

Question: And the RALB (3 h)?
Answer: 3.1 g/dL

Question: And the TBIL (3 h)?
Answer: 0.028 mg/dL

Question: What about the TC (3 h) of the same compound?
Answer: 74.4 mg/dL

Question: And the TG (3 h)?
Answer: 50 mg/dL

Question: What about the TP (3 h) of the same compound?
Answer: 5.5 g/dL

Question: And the gamma-GTP (3 h)?
Answer: 2 IU/L

Question: And the TERMINAL_BW (6 h)?
Answer: 221.4 g

Question: And the APTT (6 h)?
Answer: 23.3 s

Question: And the Bas (6 h)?
Answer: 0%

Question: And the Eos (6 h)?
Answer: 0.2%

Question: And the Fbg (6 h)?
Answer: 300.8 mg/dL

Question: What about the Hb (6 h) of the same compound?
Answer: 13 g/dL

Question: And the Ht (6 h)?
Answer: 40.1%

Question: What about the Lym (6 h) of the same compound?
Answer: 72.2%

Question: And the MCH (6 h)?
Answer: 19.8 pg

Question: And the MCHC (6 h)?
Answer: 32.5%

Question: What about the MCV (6 h) of the same compound?
Answer: 61.1 fL

Question: And the Mono (6 h)?
Answer: 1.6%

Question: What about the Neu (6 h) of the same compound?
Answer: 25.2%

Question: What about the PT (6 h) of the same compound?
Answer: 15.6 s

Question: What about the Plat (6 h) of the same compound?
Answer: 119.2 x10_4/uL

Question: And the RBC (6 h)?
Answer: 655.4 x10_4/ul

Question: And the Ret (6 h)?
Answer: 8.1%

Question: And the WBC (6 h)?
Answer: 56.2 x10_2/uL

Question: What about the KIDNEY_L (6 h) of the same compound?
Answer: 1 g

Question: And the KIDNEY_R (6 h)?
Answer: 1 g

Question: What about the KIDNEY_TOTAL (6 h) of the same compound?
Answer: 2 g

Question: And the LIVER (6 h)?
Answer: 10.3 g

Question: What about the A/G (6 h) of the same compound?
Answer: 1.2

Question: And the ALP (6 h)?
Answer: 1445.6 IU/L

Question: What about the ALT (6 h) of the same compound?
Answer: 43 IU/L

Question: What about the AST (6 h) of the same compound?
Answer: 73 IU/L

Question: And the BUN (6 h)?
Answer: 13 mg/dL

Question: What about the CRE (6 h) of the same compound?
Answer: 0.2 mg/dL

Question: And the Ca (6 h)?
Answer: 10.8 mg/dL

Question: What about the Cl (6 h) of the same compound?
Answer: 105.2 meq/L

Question: What about the DBIL (6 h) of the same compound?
Answer: 0.002 mg/dL

Question: And the GLC (6 h)?
Answer: 181.2 mg/dL

Question: And the IP (6 h)?
Answer: 10.2 mg/dL

Question: What about the K (6 h) of the same compound?
Answer: 4.6 meq/L

Question: And the LDH (6 h)?
Answer: 143.6 IU/L

Question: And the Na (6 h)?
Answer: 140.4 meq/L

Question: And the PL (6 h)?
Answer: 138.2 mg/dL

Question: And the RALB (6 h)?
Answer: 3.1 g/dL

Question: What about the TBIL (6 h) of the same compound?
Answer: 0.04 mg/dL

Question: And the TC (6 h)?
Answer: 81.6 mg/dL

Question: What about the TG (6 h) of the same compound?
Answer: 27.6 mg/dL

Question: What about the TP (6 h) of the same compound?
Answer: 5.6 g/dL

Question: And the gamma-GTP (6 h)?
Answer: 1.6 IU/L

Question: What about the TERMINAL_BW (9 h) of the same compound?
Answer: 211.4 g

Question: And the APTT (9 h)?
Answer: 23.8 s

Question: And the Bas (9 h)?
Answer: 0%

Question: What about the Eos (9 h) of the same compound?
Answer: 0.2%

Question: What about the Fbg (9 h) of the same compound?
Answer: 336.2 mg/dL

Question: What about the Hb (9 h) of the same compound?
Answer: 13.3 g/dL

Question: What about the Ht (9 h) of the same compound?
Answer: 41.7%

Question: What about the Lym (9 h) of the same compound?
Answer: 72.4%

Question: What about the MCH (9 h) of the same compound?
Answer: 20 pg

Question: What about the MCHC (9 h) of the same compound?
Answer: 32%

Question: What about the MCV (9 h) of the same compound?
Answer: 62.5 fL

Question: And the Mono (9 h)?
Answer: 1%

Question: And the Neu (9 h)?
Answer: 25.6%

Question: And the PT (9 h)?
Answer: 15.4 s

Question: What about the Plat (9 h) of the same compound?
Answer: 110.4 x10_4/uL

Question: What about the RBC (9 h) of the same compound?
Answer: 667.4 x10_4/ul

Question: What about the Ret (9 h) of the same compound?
Answer: 7.4%

Question: What about the WBC (9 h) of the same compound?
Answer: 39.5 x10_2/uL

Question: What about the KIDNEY_L (9 h) of the same compound?
Answer: 1 g

Question: What about the KIDNEY_R (9 h) of the same compound?
Answer: 1 g

Question: What about the KIDNEY_TOTAL (9 h) of the same compound?
Answer: 1.9 g

Question: And the LIVER (9 h)?
Answer: 10.5 g

Question: And the A/G (9 h)?
Answer: 1.2

Question: What about the ALP (9 h) of the same compound?
Answer: 1398.6 IU/L

Question: What about the ALT (9 h) of the same compound?
Answer: 40.2 IU/L

Question: And the AST (9 h)?
Answer: 74.6 IU/L

Question: And the BUN (9 h)?
Answer: 13 mg/dL

Question: And the CRE (9 h)?
Answer: 0.1 mg/dL

Question: And the Ca (9 h)?
Answer: 10.7 mg/dL

Question: And the Cl (9 h)?
Answer: 106.2 meq/L

Question: What about the DBIL (9 h) of the same compound?
Answer: 0.002 mg/dL

Question: And the GLC (9 h)?
Answer: 188 mg/dL

Question: What about the IP (9 h) of the same compound?
Answer: 9.1 mg/dL

Question: And the K (9 h)?
Answer: 4.3 meq/L

Question: And the LDH (9 h)?
Answer: 157.2 IU/L

Question: And the Na (9 h)?
Answer: 141.2 meq/L

Question: What about the PL (9 h) of the same compound?
Answer: 156.2 mg/dL

Question: What about the RALB (9 h) of the same compound?
Answer: 3.2 g/dL

Question: What about the TBIL (9 h) of the same compound?
Answer: 0.024 mg/dL

Question: And the TC (9 h)?
Answer: 84.4 mg/dL

Question: And the TG (9 h)?
Answer: 81.2 mg/dL

Question: What about the TP (9 h) of the same compound?
Answer: 5.7 g/dL

Question: What about the gamma-GTP (9 h) of the same compound?
Answer: 1.2 IU/L

Question: What about the TERMINAL_BW (24 h) of the same compound?
Answer: 231.1 g

Question: And the APTT (24 h)?
Answer: 24.4 s

Question: And the Bas (24 h)?
Answer: 0%

Question: What about the Eos (24 h) of the same compound?
Answer: 1%

Question: And the Fbg (24 h)?
Answer: 333.6 mg/dL

Question: What about the Hb (24 h) of the same compound?
Answer: 13.2 g/dL

Question: What about the Ht (24 h) of the same compound?
Answer: 40.6%

Question: And the Lym (24 h)?
Answer: 77.8%

Question: And the MCH (24 h)?
Answer: 20.5 pg

Question: And the MCHC (24 h)?
Answer: 32.6%

Question: What about the MCV (24 h) of the same compound?
Answer: 63 fL

Question: And the Mono (24 h)?
Answer: 2.2%

Question: What about the Neu (24 h) of the same compound?
Answer: 18.6%

Question: And the PT (24 h)?
Answer: 15.5 s

Question: What about the Plat (24 h) of the same compound?
Answer: 125.6 x10_4/uL

Question: What about the RBC (24 h) of the same compound?
Answer: 644.6 x10_4/ul

Question: What about the Ret (24 h) of the same compound?
Answer: 7.9%

Question: What about the WBC (24 h) of the same compound?
Answer: 130.2 x10_2/uL

Question: And the KIDNEY_L (24 h)?
Answer: 1 g

Question: What about the KIDNEY_R (24 h) of the same compound?
Answer: 1.1 g

Question: What about the KIDNEY_TOTAL (24 h) of the same compound?
Answer: 2.1 g

Question: And the LIVER (24 h)?
Answer: 12.1 g

Question: And the A/G (24 h)?
Answer: 1.2

Question: And the ALP (24 h)?
Answer: 1702.6 IU/L

Question: And the ALT (24 h)?
Answer: 45.8 IU/L

Question: What about the AST (24 h) of the same compound?
Answer: 70.8 IU/L

Question: What about the BUN (24 h) of the same compound?
Answer: 17.8 mg/dL

Question: What about the CRE (24 h) of the same compound?
Answer: 0.2 mg/dL

Question: What about the Ca (24 h) of the same compound?
Answer: 11.1 mg/dL

Question: What about the Cl (24 h) of the same compound?
Answer: 105.8 meq/L

Question: And the DBIL (24 h)?
Answer: 0 mg/dL

Question: What about the GLC (24 h) of the same compound?
Answer: 193.4 mg/dL

Question: And the IP (24 h)?
Answer: 7.8 mg/dL

Question: What about the K (24 h) of the same compound?
Answer: 4.5 meq/L

Question: What about the LDH (24 h) of the same compound?
Answer: 184.2 IU/L

Question: And the Na (24 h)?
Answer: 140.8 meq/L

Question: And the PL (24 h)?
Answer: 168 mg/dL

Question: And the RALB (24 h)?
Answer: 3.3 g/dL

Question: And the TBIL (24 h)?
Answer: 0 mg/dL

Question: And the TC (24 h)?
Answer: 77.2 mg/dL

Question: What about the TG (24 h) of the same compound?
Answer: 188.8 mg/dL

Question: What about the TP (24 h) of the same compound?
Answer: 5.9 g/dL

Question: And the gamma-GTP (24 h)?
Answer: 1.6 IU/L
